Measured values reported in the supplement of paper PMC10307832.

How the values were obtained:
Test in all cases: relative viability (nuclei count vs DMSO), 5 days (fraction); higher = more cells survive
[1] = tested on: HCC-78
In short: (§1)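 Cells from lung cancer lines were seeded into 1536-well plates and, one day later, dosed by pin tool. Treatments were either a single drug or a fixed dose of an anchor drug with five library-drug doses (not always all listed) in √10 steps. After 5 days, nuclei were stained in a one-step fixation (final 0.05% Triton X-100, 1% formaldehyde, 1 ug/ml Hoechst) and counted on 4× images, and relative viability is the treated-to-vehicle nuclei ratio, as the median of duplicate plates.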

[2] = tested on: NCI-H460
In short: as §1

[3] = tested on: NCI-H2085
In short: as §1

[4] = tested on: LU99A
In short: as §1

[5] = tested on: NCI-H1755
In short: as §1

[6] = tested on: NCI-H650
In short: as §1

[7] = tested on: HARA
In short: as §1

[8] = tested on: PC-3 [JPC-3]
In short: as §1

[9] = tested on: NCI-H596
In short: as §1

[10] = tested on: HCC-366
In short: as §1

[11] = tested on: NCI-H322M
In short: as §1

[12] = tested on: NCI-H2087
In short: as §1

[13] = tested on: NCI-H1651
In short: as §1

[14] = tested on: NCI-H358
In short: as §1

[15] = tested on: H3255
In short: as §1

[16] = tested on: NCI-H1793
In short: as §1

[17] = tested on: 201T
In short: as §1

[18] = tested on: NCI-H3122
In short: as §1

[19] = tested on: SK-LU-1
In short: as §1

[20] = tested on: COR-L23
In short: as §1

[21] = tested on: NCI-H23
In short: as §1

`Cc1csc(=NC2CCCCC2)n1/N=C/c1ccc(O)c(O)c1O` [MIM1] + C[C@]1(O)C[C@@H](c2nc(-c3ccc4ccc(-c5ccccc5)nc4c3)c3c(N)nccn32)C1 [Linsitinib] (partner 1 µM) gave a relative viability ([1]; first compound 0.2 µM) of 0.551, a relative viability ([1]; first compound 0.6325 µM) of 0.594 and a relative viability ([1]; first compound 2 µM) of 0.488. The relative viability ([1]; first compound 6.325 µM) was 0.439, the relative viability ([1]; first compound 20 µM) was 0.541 and the relative viability ([2]; first compound 0.2 µM) was 0.791. It also gave a relative viability ([2]; first compound 0.6325 µM) of 0.783, a relative viability ([2]; first compound 2 µM) of 0.582 and a relative viability ([2]; first compound 6.325 µM) of 0.287. It also gave a relative viability ([2]; first compound 20 µM) of 0.022, a relative viability ([3]; first compound 0.2 µM) of 1.04 and a relative viability ([3]; first compound 0.6325 µM) of 0.912. The relative viability ([3]; first compound 2 µM) was 0.971, the relative viability ([3]; first compound 6.325 µM) was 0.815 and the relative viability ([3]; first compound 20 µM) was 0.934. The relative viability ([4]; first compound 0.2 µM) was 0.528, the relative viability ([4]; first compound 0.6325 µM) was 0.57 and the relative viability ([4]; first compound 2 µM) was 0.489. The relative viability ([4]; first compound 6.325 µM) was 0.545, the relative viability ([4]; first compound 20 µM) was 0.284 and the relative viability ([5]; first compound 0.2 µM) was 1.02. It also gave a relative viability ([5]; first compound 0.6325 µM) of 0.996, a relative viability ([5]; first compound 2 µM) of 1.03 and a relative viability ([5]; first compound 6.325 µM) of 0.71. The relative viability ([5]; first compound 20 µM) was 0.724, the relative viability ([6]; first compound 0.2 µM) was 0.964 and the relative viability ([6]; first compound 0.6325 µM) was 0.843. For the same compound, the relative viability ([6]; first compound 2 µM) was 0.938, the relative viability ([6]; first compound 6.325 µM) was 0.824 and the relative viability ([6]; first compound 20 µM) was 0.234. It also gave a relative viability ([7]; first compound 0.2 µM) of 0.9, a relative viability ([7]; first compound 0.6325 µM) of 0.926 and a relative viability ([7]; first compound 2 µM) of 0.909. It also gave a relative viability ([7]; first compound 6.325 µM) of 0.92, a relative viability ([7]; first compound 20 µM) of 0.187 and a relative viability ([8]; first compound 0.2 µM) of 0.946. For the same compound, the relative viability ([8]; first compound 0.6325 µM) was 0.952, the relative viability ([8]; first compound 2 µM) was 1 and the relative viability ([8]; first compound 6.325 µM) was 0.805. For the same compound, the relative viability ([8]; first compound 20 µM) was 0.845, the relative viability ([9]; first compound 0.2 µM) was 0.989 and the relative viability ([9]; first compound 0.6325 µM) was 0.989. For the same compound, the relative viability ([9]; first compound 2 µM) was 0.991, the relative viability ([9]; first compound 6.325 µM) was 0.857 and the relative viability ([9]; first compound 20 µM) was 0.871. It also gave a relative viability ([10]; first compound 0.2 µM) of 0.511, a relative viability ([10]; first compound 0.6325 µM) of 0.715 and a relative viability ([10]; first compound 2 µM) of 0.565. It also gave a relative viability ([10]; first compound 6.325 µM) of 0.361, a relative viability ([10]; first compound 20 µM) of 0.0221 and a relative viability ([11]; first compound 0.2 µM) of 1.01. It also gave a relative viability ([11]; first compound 0.6325 µM) of 0.981, a relative viability ([11]; first compound 2 µM) of 1.05 and a relative viability ([11]; first compound 6.325 µM) of 0.905. The relative viability ([11]; first compound 20 µM) was 0.912, the relative viability ([12]; first compound 0.2 µM) was 0.935 and the relative viability ([12]; first compound 0.6325 µM) was 0.833. For the same compound, the relative viability ([12]; first compound 2 µM) was 0.989, the relative viability ([12]; first compound 6.325 µM) was 0.693 and the relative viability ([12]; first compound 20 µM) was 0.428. The relative viability ([13]; first compound 0.2 µM) was 0.925, the relative viability ([13]; first compound 0.6325 µM) was 0.993 and the relative viability ([13]; first compound 2 µM) was 1. The relative viability ([13]; first compound 6.325 µM) was 0.825, the relative viability ([13]; first compound 20 µM) was 0.797 and the relative viability ([14]; first compound 0.2 µM) was 0.703. For the same compound, the relative viability ([14]; first compound 0.6325 µM) was 0.651, the relative viability ([14]; first compound 2 µM) was 0.694 and the relative viability ([14]; first compound 6.325 µM) was 0.324. For the same compound, the relative viability ([14]; first compound 20 µM) was 0.341, the relative viability ([15]; first compound 0.2 µM) was 0.901 and the relative viability ([15]; first compound 0.6325 µM) was 0.918. The relative viability ([15]; first compound 2 µM) was 0.883, the relative viability ([15]; first compound 6.325 µM) was 0.637 and the relative viability ([15]; first compound 20 µM) was 0.406. For the same compound, the relative viability ([16]; first compound 0.2 µM) was 0.799, the relative viability ([16]; first compound 0.6325 µM) was 0.902 and the relative viability ([16]; first compound 2 µM) was 0.809. It also gave a relative viability ([16]; first compound 6.325 µM) of 0.925, a relative viability ([16]; first compound 20 µM) of 1.02 and a relative viability ([17]; first compound 0.2 µM) of 1.02. For the same compound, the relative viability ([17]; first compound 0.6325 µM) was 1.04, the relative viability ([17]; first compound 2 µM) was 1.04 and the relative viability ([17]; first compound 6.325 µM) was 1.03. It also gave a relative viability ([17]; first compound 20 µM) of 1.25, a relative viability ([18]; first compound 0.2 µM) of 0.959 and a relative viability ([18]; first compound 0.6325 µM) of 1.08. The relative viability ([18]; first compound 2 µM) was 1.12, the relative viability ([18]; first compound 6.325 µM) was 0.926 and the relative viability ([18]; first compound 20 µM) was 0.396. It also gave a relative viability ([19]; first compound 0.2 µM) of 1.12, a relative viability ([19]; first compound 0.6325 µM) of 1.26 and a relative viability ([19]; first compound 2 µM) of 1.29. It also gave a relative viability ([19]; first compound 6.325 µM) of 1.03, a relative viability ([19]; first compound 20 µM) of 0.996 and a relative viability ([20]; first compound 0.2 µM) of 0.77. It also gave a relative viability ([20]; first compound 0.6325 µM) of 1.12, a relative viability ([20]; first compound 2 µM) of 1.01 and a relative viability ([20]; first compound 6.325 µM) of 0.813. For the same compound, the relative viability ([20]; first compound 20 µM) was 0.498, the relative viability ([21]; first compound 0.2 µM) was 0.553 and the relative viability ([21]; first compound 2 µM) was 0.488. The relative viability ([21]; first compound 6.325 µM) was 0.58 and the relative viability ([21]; first compound 20 µM) was 0.215.
